Among the test systems are A498 renal; BT-549 breast; MCF7 breast; MDA-MB-231 breast; NCI/ADR-RES ovarian; OVCAR-5 ovarian; PC-3 prostate; SK-MEL-2 melanoma; SNB-75 CNS; T-47D breast.
Common to all, as to test: NCI tumour cell line growth inhibition, 48 h

The values that follow come from PubChem BioAssay (NCI).

Molecules are shown by their SMILES.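 Grown in 96-well plates, cells were treated for 48 hours with each compound at five concentrations. Insufficient inhibition: endpoint recorded as highest concentration tested. GI50 = concentration required for 50% inhibition of growth. Definition used: TGI = concentration required for complete inhibition of growth.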

In the case of `Nc1c(C(=O)c2ccccc2)cnn1-c1ccc(F)cc1`, the GI50 in the assay on A498 renal was more than 25 µM; with BT-549 breast, more than 25 µM; in the assay with MCF7 breast it was more than 25000 nM; in the assay with MDA-MB-231 breast, more than 25 µM; in the assay with NCI/ADR-RES ovarian it was more than 25 µM; in the assay on OVCAR-5 ovarian it was more than 25 µM. Further, the GI50 with PC-3 prostate was more than 25000 nM; with SK-MEL-2 melanoma, more than 25 µM; in the assay with SNB-75 CNS, more than 25 µM; with T-47D breast it was more than 25 µM. Also, the TGI in the assay on A498 renal, with BT-549 breast, with MCF7 breast, in the assay with MDA-MB-231 breast, in the assay on NCI/ADR-RES ovarian and in the assay on OVCAR-5 ovarian was more than 25 µM in each case. For the same molecule, the TGI with PC-3 prostate, in the assay on SK-MEL-2 melanoma, with SNB-75 CNS and in the assay on T-47D breast was more than 25 µM throughout.

As for `CN(C)C(=S)Sc1ccc([N+](=O)[O-])cc1[N+](=O)[O-]`, the GI50 in the assay with A498 renal was 9.47 µM; with BT-549 breast it was 3.22 µM; with MCF7 breast it was 777 nM; in the assay on MDA-MB-231 breast, 3.04 µM; in the assay with NCI/ADR-RES ovarian, 4.73 µM; in the assay on OVCAR-5 ovarian, 6.01 µM. In addition, the GI50 was 2170 nM in the assay on PC-3 prostate, 4.21 µM in the assay on SK-MEL-2 melanoma, 7.53 µM in the assay with SNB-75 CNS and 1.56 µM in the assay on T-47D breast. Also, the TGI worked out at 22 µM in the assay on A498 renal; 9.93 µM with BT-549 breast; 5.03 µM in the assay with MCF7 breast; 11.9 µM in the assay on MDA-MB-231 breast; 16.8 µM with NCI/ADR-RES ovarian; 18.1 µM in the assay with OVCAR-5 ovarian. Moreover, the TGI turned out to be 13.3 µM in the assay on PC-3 prostate, 9.86 µM in the assay on SK-MEL-2 melanoma, 20.5 µM in the assay with SNB-75 CNS and 3.75 µM in the assay on T-47D breast.

As to `CCc1ccc(/C=C/c2ccc(O)c3ncccc23)[n+](C)c1`, the GI50 in the assay on A498 renal is 1.42 µM; in the assay with BT-549 breast, 15.1 µM; in the assay with MCF7 breast it was 7990 nM; in the assay on MDA-MB-231 breast it was 57.9 µM; with NCI/ADR-RES ovarian it was more than 100 µM; with OVCAR-5 ovarian it was more than 100 µM. Also, the GI50 in the assay with PC-3 prostate was 6090 nM; in the assay with SK-MEL-2 melanoma, more than 71.7 µM; in the assay on SNB-75 CNS, more than 100 µM; with T-47D breast, 1.66 µM. Moreover, the TGI in the assay on A498 renal was more than 63 µM; in the assay with BT-549 breast, more than 100 µM; in the assay on MCF7 breast it was more than 90.7 µM; in the assay on MDA-MB-231 breast, more than 100 µM; with NCI/ADR-RES ovarian it was more than 100 µM; in the assay with OVCAR-5 ovarian it was more than 100 µM. Also, the TGI in the assay with PC-3 prostate, in the assay with SK-MEL-2 melanoma, with SNB-75 CNS and with T-47D breast was more than 100 µM each time.

For `CN1CC[C@@H](c2c(O)cc(O)c3c(=O)cc(-c4ccc(C(F)(F)F)cc4Cl)oc23)[C@@H]1CO`, the GI50 is 14.2 µM in the assay with A498 renal; 12.2 µM in the assay on BT-549 breast; 14500 nM in the assay on MCF7 breast; 12.7 µM with MDA-MB-231 breast; 19.1 µM in the assay on NCI/ADR-RES ovarian; 14.1 µM in the assay on OVCAR-5 ovarian. Moreover, the GI50 was 19000 nM in the assay on PC-3 prostate, 18.1 µM in the assay on SK-MEL-2 melanoma, 6.89 µM with SNB-75 CNS and 14.5 µM in the assay with T-47D breast. The TGI came out at 27.6 µM with A498 renal; 25.9 µM in the assay with BT-549 breast; 38.3 µM in the assay with MCF7 breast; 34.3 µM with MDA-MB-231 breast; 51.6 µM in the assay with NCI/ADR-RES ovarian; 59.3 µM with OVCAR-5 ovarian. For the same molecule, the TGI with PC-3 prostate came out at 44.5 µM; in the assay with SK-MEL-2 melanoma, 41 µM; in the assay with SNB-75 CNS, 22 µM; with T-47D breast, 50.4 µM.

As for `CC1(C)N=C(N)N=C(N)N1c1ccc(CCCCc2ccc(Cl)c(S(=O)(=O)F)c2)c(Cl)c1`, the GI50 in the assay on A498 renal is 5.56 µM; in the assay with BT-549 breast, 1.55 µM; with MCF7 breast it was 529 nM; in the assay on MDA-MB-231 breast, 4.03 µM; in the assay on NCI/ADR-RES ovarian it was 40 µM; in the assay with OVCAR-5 ovarian, 13.9 µM. Also, the GI50 in the assay with PC-3 prostate was 214 nM; in the assay with SK-MEL-2 melanoma, 2.45 µM; in the assay with SNB-75 CNS, 10.4 µM; in the assay with T-47D breast it was 3.11 µM. Further, the TGI is 25.7 µM in the assay on A498 renal; 12.5 µM in the assay on BT-549 breast; 16.9 µM with MCF7 breast; 20.6 µM with MDA-MB-231 breast; more than 100 µM with NCI/ADR-RES ovarian; 27.1 µM with OVCAR-5 ovarian. The TGI is 15.1 µM in the assay on PC-3 prostate, more than 33.6 µM in the assay on SK-MEL-2 melanoma, more than 52.5 µM in the assay with SNB-75 CNS and 15.1 µM in the assay with T-47D breast.

Consider `COc1cc(/C=C/C(=O)c2cccc(-n3cc(-c4ccc(Cl)cc4)[nH]c3=O)c2)ccc1O`, for which the GI50 in the assay on A498 renal is 5.78 µM; with BT-549 breast it was 2.89 µM; with MCF7 breast, 1440 nM; in the assay with MDA-MB-231 breast it was 3.46 µM; with NCI/ADR-RES ovarian, 2.78 µM; with OVCAR-5 ovarian it was 6.45 µM. Also, the GI50 in the assay with PC-3 prostate is 1950 nM; in the assay with SK-MEL-2 melanoma, 3.61 µM; in the assay with SNB-75 CNS, 2.36 µM; with T-47D breast, 3.39 µM. In addition, the TGI with A498 renal is 16.7 µM; in the assay on BT-549 breast it was 10.9 µM; in the assay on MCF7 breast it was 7.98 µM; with MDA-MB-231 breast it was more than 39.1 µM; in the assay with NCI/ADR-RES ovarian, more than 30.5 µM; in the assay on OVCAR-5 ovarian, 15.1 µM. Besides, the TGI in the assay with PC-3 prostate amounted to 6.97 µM; in the assay with SK-MEL-2 melanoma, 14.4 µM; in the assay on SNB-75 CNS it was 10.2 µM; in the assay on T-47D breast it was 17.8 µM.

As to `Cc1ccc2c(C3C(C#N)=C(N)Oc4cc5ccccc5cc43)cc(=O)oc2c1` (stereo not given), the GI50 in the assay on A498 renal was 4.23 µM; with BT-549 breast, 3.67 µM; in the assay on MCF7 breast, 428 nM; with MDA-MB-231 breast, 8.2 µM; with NCI/ADR-RES ovarian, 0.833 µM; in the assay with OVCAR-5 ovarian it was 3.76 µM. For the same molecule, the GI50 in the assay on PC-3 prostate is 1250 nM; with SK-MEL-2 melanoma, 11.7 µM; in the assay on SNB-75 CNS, 6.89 µM; in the assay with T-47D breast, 1.49 µM. For the same molecule, the TGI in the assay with A498 renal was 86.3 µM; with BT-549 breast it was 64.3 µM; with MCF7 breast, more than 100 µM; in the assay with MDA-MB-231 breast, more than 100 µM; in the assay on NCI/ADR-RES ovarian, more than 100 µM; in the assay on OVCAR-5 ovarian it was more than 100 µM. The TGI was more than 100 µM in the assay on PC-3 prostate, more than 100 µM in the assay on SK-MEL-2 melanoma, more than 100 µM in the assay with SNB-75 CNS and 64 µM with T-47D breast.
